Results taken from patent publication US4845123A, “Reduction in vivo of the inappropriate levels of endogenous and environmental-derived compounds by sustained-release inhibitors of β- g” (priority 1985, dated 1989).
Values joined by “and” are separate entries in the source; they are usually repeats but may differ in a detail not shown here. Equal values may be shown once. “Also recorded” adds a separate entry of the source. Read-outs that look alike come from different tables or passages of the source.

What was measured:
serum β-glucuronidase [1] = target: T1, serum β-glucuronidase (Rattus norvegicus, UniProt P06760); assay: in vivo; format: in vivo
T1 sequence (P06760 23-648): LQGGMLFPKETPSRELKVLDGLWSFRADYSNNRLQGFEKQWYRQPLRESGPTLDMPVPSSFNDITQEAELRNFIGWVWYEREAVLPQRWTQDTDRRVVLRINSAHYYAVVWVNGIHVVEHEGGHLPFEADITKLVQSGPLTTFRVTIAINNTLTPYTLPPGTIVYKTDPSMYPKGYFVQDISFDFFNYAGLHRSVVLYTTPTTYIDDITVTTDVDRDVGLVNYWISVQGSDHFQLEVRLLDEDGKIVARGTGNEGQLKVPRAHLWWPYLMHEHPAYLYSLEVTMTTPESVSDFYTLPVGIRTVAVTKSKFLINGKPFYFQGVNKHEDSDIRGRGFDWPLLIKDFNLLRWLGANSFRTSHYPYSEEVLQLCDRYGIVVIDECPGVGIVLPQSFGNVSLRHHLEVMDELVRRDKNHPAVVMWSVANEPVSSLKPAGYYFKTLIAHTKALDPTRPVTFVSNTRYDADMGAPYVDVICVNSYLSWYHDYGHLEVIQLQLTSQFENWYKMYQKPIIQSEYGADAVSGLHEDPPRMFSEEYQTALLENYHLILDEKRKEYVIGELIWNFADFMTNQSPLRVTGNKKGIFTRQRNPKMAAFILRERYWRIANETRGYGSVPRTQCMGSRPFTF
Experimental: GL was synthesized and microencapsulated to give sustained-release GL (EGL), by an established procedure used to microencapsulate ascorbic acid, as reported in Samejima, M. et al., Chem. Pharm. Bull., (Tokyo) 1982, 30:2894-2899. In this procedure, the GL as a fine powder is added to a stirred mixture of cyclohexane, polyisobutylene as coacervation-inducing agent and ethylcellulose as wall-forming material. The addition of GL is at 78° C., then phase separation is induced by lowering the temperature first to 40° C., then to 25° C. The microcapsules, which have thick walls, are washed with cyclohexane and dried. […] DAGDL, calcium D-glucarate (CGT), and potassium hydrogen D-glucarate (PGT) were synthesized. For comparison of efficacy of the inhibitors, 1,5 mmoles/kg (GL, EGL or DAGDL) or 4.5 mmoles/kg (CGT or PGT) of the inhibitor in 1.0 ml of sesame oil or vehicle only (controls) was administered to rats by stomach tube at zero time. Blood samples were obtained from different rats by cardiac puncture under ether anesthesia. The serum was prepared and assayed for β-glucuronidase activity using a commerical diagnostic kit sold by Sigma Chemical Company, St. Louis, MO. The assay is based on the hydrolysis of phenolphthalein-glucuronide and quantitation of phenolphthalein in alkaline medium at […]. For tests of anti-carcinogencity, the inhibitors were administered by stomach tube in 1.0 ml of sesame oil 30 minutes before and again at 2.5 hours after the carcinogen, for DAGDL, or 3 hours and 30 minutes before the carcinogen, for EGL, CGT, and PGT. The controls received sesame oil only by stomach tube.
At the time periods indicated above blood samples were obtained from rats under ether aneathesia by cardiac puncture, the serum was then prepared and assayed for β-glucuronidase activity using a commercial diagnostic kit sold by Sigma Chem. Co., St. Louis, MO.
For the inhibition of the initiation stage, CGT was given by gavage in two doses (4.5 mmoles/kg/dose) at 3 hours and again at 0.5 hours before carcinogen administration. […] The concentrations of CGT were incorporated into the powdered chow diet. The blood samples were obtained 10 days after the initiation of the CGT feeding.
DAGDL or GL (1.5 mmol/kg) in 1.0 ml of sesame oil, or vehicle only (controls) was administered to rats by stomach tube at zero time. […] The serum was prepared and assayed for β-glucuronidase activity using a commercial diagnostic kit sold by Sigma Chemical Company, St. Louis, MO. The assay is based on the hydrolysis of phenolphthalein-glucuronide and quantitation of phenolphtalein in alkaline medium at 550 nm.

[2] = Excerpt: In the long term feeding experiments in which CGT intake was over an extended period of time, at the termination of the experiment the following organs were examined macroscopically and weighed: liver, kidneys, adrenals.
The adrenals were slightly (ca 20%) smaller by weight in the group receiving 10% CGT supplemented chow.

serum β-glucuronidase [3] = target: T1, serum β-glucuronidase; format: in vivo; settings: 1.0 mmoles/kg i.g., assayed 1 hour after administration
60 kd oncofetal protein = assay: effect of β-glucuronidase inhibitors on carcinogen induction of the 60 kd factor in plasma (cell-free RNA transport assay); format: in vivo, rat
[4] = tested on: Estrogen and Androgen Levels
bladder tumor = settings: Uemura et al. 1975; cited from earlier work
Morris Hepatoma 7777 = assay: growth of transplanted Morris Hepatoma 7777; format: in vivo, rat; settings: 2% CGT diet from one week before transplant, male Buffalo rats
Experimental: One group of male Buffalo rats was put on 2% CGT diet one week before the hepatoma transplant, while the other group of rats (controls) was kept on the regular chow diet. A minimum number of Morris Hepatoma 7777 cells consistent with tumor growth were innoculated subcutaneously in the left flank of all rats. Tumor diameters were measured at least twice weekly, and tumor volume was calculated.

[5] = second dose of DAGDL 3 hours after the initial dose, 2.5 hours after carcinogen
[6] = carcinogen 7,12-Dimethylbenz[a]anthracene, 21 days post-treatment
[7] = +DAGDL (1.5% DAGDL diet), female Sprague Dawley rats
[8] = +DAGDL (1.5% DAGDL diet), male Sprague Dawley rats
[9] = +CGT, 50 day old Sprague Dawley female rats

Structure (SMILES): CC(=O)O[C@@H]1C(=O)O[C@H]2[C@@H]1OC(=O)[C@@H]2OC(C)=O [DAGDL, 2,5-di-O-acetyl-D-glucaro-1,4;6,3-dilactone]
- time to 50% inhibition of serum β-glucuronidase (serum β-glucuronidase [1]; 1.5 mmol/kg): ≤ 0.5 h
- time for which 50% inhibition or greater is maintained (serum β-glucuronidase [1]; 1.5 mmol/kg, single dose): approximately 3 hours
- reduction of serum β-glucuronidase activity (serum β-glucuronidase [1]; 1.5 mmoles/kg i.g., assayed 1 hour after administration): 80%
- effect of carcinogen co-administration on degree of β-glucuronidase inhibition (serum β-glucuronidase [1]; carcinogen co-administered): not influenced significantly
- inhibition at 1500 µmol/kg (serum β-glucuronidase [1]; rat, 1.5 mmol/kg, within 0.5 hour of administration): 50%
- duration of approximately 50% inhibition after second dose (serum β-glucuronidase [1]; [5]): up to 6 hours
- inhibition of β-glucuronidase after second dose (serum β-glucuronidase [1]; [5]): approximately 50%
- time-course of serum β-glucuronidase inhibition (serum β-glucuronidase [1]; single i.g. dose 1.5 mmoles/kg (GL, DAGDL, EGL)): marked and prolonged inhibition; also recorded: more prolonged inhibition
- decrease of adrenal weight ([2]; DAGDL supplemented chow): 20-30%
- reduction of serum β-glucuronidase activity (serum β-glucuronidase [3]): 50%
- 60 kd factor in plasma, MNU with inhibitor (60 kd oncofetal protein; 504 h): 1.2 Units
- Percent Inhibition of the induction of the 60 kd factor (60 kd oncofetal protein; carcinogen 2-Acetylaminofluorene, 21 days post-treatment): 66%
- Percent Inhibition of the induction of the 60 kd factor (60 kd oncofetal protein; [6]): 77%
- Percent Inhibition of the induction of the 60 kd factor (60 kd oncofetal protein; carcinogen Benzo[a]pyrene, 21 days post-treatment): 76%
- sex hormone levels ([4]; 1.5% DAGDL diet, male and female rats): reduces sex hormone levels; also recorded: lower steady state level of steroid hormones
- 17-Ketosteroids (urinary excretion) [4, 7]: 12 μg/100 g body wt × 24 hrs
- Estradiol (serum) [4, 7]: 140 pmol/L
- 17-Ketosteroids (urinary excretion) [4, 8]: 17 μg/100 g body wt × 24 hrs
- Testosterone (serum) [4, 8]: 9 nmol/L
- inhibition of N-butyl-N-(4-butanol)nitrosamine-mediated bladder tumor (bladder tumor): unsuccessful

Structure (SMILES): O=C([O-])[C@@H](O)[C@@H](O)[C@H](O)[C@@H](O)C(=O)[O-].[Ca+2] [CGT, calcium D-glucarate]
- reduction of serum β-glucuronidase activity (serum β-glucuronidase [1]; rat, in vivo): 50% and 80%
- reduction of serum β-glucuronidase levels by dietary CGT (serum β-glucuronidase [1]; rat, in vivo): 50%
- time-course of serum β-glucuronidase inhibition (serum β-glucuronidase [1]; rat, in vivo): prolonged inhibition
- decrease of adrenal weight ([2]; rat, in vivo): ~20%
- food intake and weight-gain compared with chow diet ([2]; rat, in vivo): essentially identical to those on chow diet
- liver and kidney weights compared with controls ([2]; rat, in vivo): essentially identical in weight
- Percent Inhibition of the induction of the 60 kd factor (60 kd oncofetal protein; carcinogen 1,2-Dimethylhydrazine, 21 days post-treatment): 60%
- Percent Inhibition of the induction of the 60 kd factor (60 kd oncofetal protein; carcinogen 1-Nitropyrene, 21 days post-treatment): 50%
- Percent Inhibition of the induction of the 60 kd factor (60 kd oncofetal protein; carcinogen 2-Naphthylamine, 21 days post-treatment): 49%
- Percent Inhibition of the induction of the 60 kd factor (60 kd oncofetal protein; carcinogen 3-Methylcholanthrene, 21 days post-treatment): 43%
- Percent Inhibition of the induction of the 60 kd factor (60 kd oncofetal protein; [6]): 83%
- Percent Inhibition of the induction of the 60 kd factor (60 kd oncofetal protein; carcinogen N-Nitrosodibutylamine, 21 days post-treatment): 53% and > 50%
- Percent Inhibition of the induction of the 60 kd factor (60 kd oncofetal protein; carcinogen N-Nitrosodiethylamine, 21 days post-treatment): 41%
- Percent Inhibition of the induction of the 60 kd factor (60 kd oncofetal protein; carcinogen N-Nitrosodimethylamine, 21 days post-treatment): 76%
- Percent Inhibition of the induction of the 60 kd factor (60 kd oncofetal protein; carcinogen N-Nitrosoethylurea, 21 days post-treatment): 68%
- Percent Inhibition of the induction of the 60 kd factor (60 kd oncofetal protein; carcinogen N-Nitrosomethylurea, 21 days post-treatment): 69%
- Percent Inhibition of the induction of the 60 kd factor (60 kd oncofetal protein; carcinogen Safrole, 21 days post-treatment): 45%
- Percent Inhibition of the induction of the 60 kd factor (60 kd oncofetal protein; rat, in vivo): 86% and 70%
- tumor growth compared with control group (Morris Hepatoma 7777): slightly slower
- 17-Ketosteroids (urinary excretion) [4, 9]: 13 μg/100 g body wt × 24 hrs
- Estradiol (serum) [4, 9]: 39 pg/mL
- reduction of serum estradiol level ([4]; CGT diet, female rats): 24%
- reduction of urinary 17-ketosteroid level ([4]; CGT diet, female rats): 55%
